In publication PMC7725003, “Systematically Studying the Optimal Amino Acid Distribution Patterns of the Amphiphilic Structure by Using the Ultrashort Amphiphiles” (Frontiers in Microbiology, 2020):
Where no end group is shown, it is not given here.

How the values were obtained:
P. aeruginosa 27853 = type: cell-based, Pseudomonas aeruginosa; details: 27853, 24 h
Method in brief: (§1)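 Absorbance at 492 nm after 24 h at 37°C defined the MIC as the lowest peptide level inhibiting 95% of growth. Inoculum was 0.5–1 × 10^6 CFU mL^–1 mid-log cells in MHB; peptides were diluted in 0.2% BSA.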

Gram-negative bacteria = details: geometric mean of MBCs, 9 Gram-negative strains (Table 2)
S. aureus 29213 [1] = test: Salt sensitivity assay (MIC); type: cell-based, Staphylococcus aureus; details: for MIC, FeCl3: 4 μM FeCl3; for MIC, NH4Cl: 6 μM NH4Cl; for MIC, ZnCl2: 8 μM ZnCl2; for MIC, MgCl2: 1 mM MgCl2; for MIC, CaCl2: 2 mM CaCl2; for MIC, KCl: 4.5 mM KCl; for MIC, NaCl: 150 mM NaCl; for MIC, Control: no added salt, three independent assays
Method in brief: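 Physiological salts (150 mM NaCl, 4.5 mM KCl, 6 μM NH4Cl, 8 μM ZnCl2, 1 mM MgCl2, 2mM CaCl2, 4 μM FeCl3) added to MHB. Bacteria at 0.5–1 × 10^6 CFU/mL exposed to serially diluted peptides for 24 h at 37°C. MIC read as lowest peptide concentration giving 95% growth inhibition by absorbance at 492 nm.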

E. coli 25922 [2] = test: Time-kill kinetics; type: cell-based, Escherichia coli; details: 1 × MIC concentration (Figure 5 legend: 1× MBC); mean of three independent experiments
Text: (§2) The kinetics of the sterilization activity of the peptide was further evaluated. […] The results of the kinetic were the mean values of three independent experiments, and each independent experiment contained three technical replicates.

S. aureus 29213 [3] = test: Time-kill kinetics; type: cell-based, Staphylococcus aureus; details: 1 × MIC concentration (Figure 5 legend: 1× MBC); mean of three independent experiments
Text: as §2

S. pullorum 7913 = type: cell-based, Salmonella pullorum; details: 7913, 24 h
Method in brief: as §1

S. epidermidis 12228 = type: cell-based, Staphylococcus epidermidis; details: 12228, 24 h
Method in brief: as §1

E. coli ATCC 25922 [4] = test: Outer membrane permeabilization (NPN uptake); type: cell-based, Escherichia coli; details: at 16 μM peptide
Protocol: Mid-log phase E. coli ATCC 25922 cells (OD600 = 0.2) were incubated with NPN (10 μM) in 5 mM HEPES buffer (pH 7.4, containing 5 mM glucose) for 30 min. The background fluorescence was recorded for subtraction (excitation λ = 350 nm, emission λ = 420 nm) with an F-4500 fluorescence spectrophotometer (Hitachi, Japan). Subsequently, 100 μL of cell suspension was mixed with equal volumes of the peptide solution at concentrations that ranged from 1 to 64 μM in a sterile 96-well black plate. The fluorescence was recorded over time until no further fluorescence increase was detectable. Each test was performed independently in triplicate, and the results were converted to the percentage of NPN uptake using the equation:
where Fobs is the observed fluorescence at a given peptide concentration, F0 is the initial fluorescence of NPN with microbial cells in the absence of peptide, and F100 is the fluorescence of NPN with microbial cells upon the addition of 10 μg/mL polymyxin B (Sigma) (for bacteria) as a positive control.

E. coli K99 = test system: E. coli K99
Method in brief: (§3)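 Peptides were serially diluted in 0.2% BSA and added to mid-logarithmic cells diluted in MHB to 0.5–1 × 10^6 CFU mL^–1. Assays followed an adapted NCCLS protocol.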

E. coli K88 = test system: E. coli K88
Method in brief: as §3

E. coli O78 = type: cell-based, Escherichia coli; details: O78, 24 h
Method in brief: as §1

E. coli UB1005 = type: cell-based, Escherichia coli; details: UB1005, 24 h
Method in brief: as §1

E. coli 25922 [5] = type: cell-based, Escherichia coli; details: 25922, 24 h
Method in brief: as §1

[6] = test system: Listeria monocytogenes CGMCC 1.1075; type: cell-based; details: CGMCC 1.1075, 24 h
Method in brief: as §1

E. coli ATCC 25922 [7] = test: Cytoplasmic membrane depolarization (DiSC3-5); type: cell-based, Escherichia coli; details: DiSC3-5 release, at all concentrations
Protocol: Mid-log phase E. coli ATCC 25922 cells (OD600 = 0.05) were incubated with 0.4 μM DiSC3-5 and 100 mM K ^+ in 5 mM HEPES buffer (pH 7.4, containing 20 mM glucose) until a steady decrease in fluorescence was achieved. The background fluorescence (excitation λ = 622 nm, emission λ = 670 nm) was recorded with an F-4500 fluorescence spectrophotometer (Hitachi, Japan). Subsequently, 2 mL of the cell suspension was added to a 1-cm quartz cuvette and mixed with various concentrations of peptide. The change in fluorescence in C-1, C-2, and C-3 was recorded from 0 to 1,000, 2,000, and 2,500 s, respectively.

[8] = MHB, 24 h 37°C, 95% growth inhibition
[9] = value in brackets, >99.9% of cells killed

Row | Substance | MBC (P. aeruginosa 27853) | MIC (P. aeruginosa 27853) | MIC, FeCl3 (S. aureus 29213 [1]) | MIC, NH4Cl (S. aureus 29213 [1]) | MIC, ZnCl2 (S. aureus 29213 [1]) | MIC, MgCl2 (S. aureus 29213 [1]) | MIC, CaCl2 (S. aureus 29213 [1]) | MIC, KCl (S. aureus 29213 [1]) | MIC, NaCl (S. aureus 29213 [1]) | MIC, Control (S. aureus 29213 [1]) | time to obliterate the growth of 99.99% of bacteria (E. coli 25922 [2]) | time to clear off the growth of 99.99% of bacteria (S. aureus 29213 [3]) | MBC (S. pullorum 7913) | MIC (S. pullorum 7913) | MBC (S. epidermidis 12228) | MIC (S. epidermidis 12228) | outer membrane permeabilization (NPN uptake) (E. coli ATCC 25922 [4]) | MBC (E. coli O78) | MIC (E. coli O78) | MBC (E. coli UB1005) | further results
1 | RLRLRLRLL-NH2 [L5] | 16 µM | 8 µM | 8 µM | 8 µM | 8 µM | 8 µM | 16 µM | 8 µM | 64 µM | 8 µM | ≤ 3 min | ≤ 0.08 min | 4 µM | 2 µM | 16 µM | 8 µM | approximately 50% | 4 µM | 2 µM | 8 µM | GM MBC (Gram-negative bacteria): 6.35 µM; MIC (E. coli K99; [8]): 4 µM; MBC (E. coli K99; [9]): 8 µM; MIC (E. coli K88; [8]): 2 µM; MBC (E. coli K88; [9]): 4 µM; MIC (E. coli UB1005): 4 µM; MBC (E. coli 25922 [5]): 4 µM; MIC (E. coli 25922 [5]): 2 µM; MBC [6]: 8 µM; MIC [6]: 4 µM
2 | RWRWRWRWW-NH2 [W5] | 8 µM | 4 µM | 1 µM | 2 µM | 2 µM | 4 µM | 2 µM | 4 µM | 2 µM | 2 µM | ≤ 0.25 min | ≤ 3 min | 4 µM | 2 µM | 4 µM | 2 µM | approximately 100% | 8 µM | 4 µM | 4 µM | time to cytoplasmic membrane depolarization / highest fluorescence intensity (E. coli ATCC 25922 [7]): ≤ 300 s; MIC (E. coli UB1005): 2 µM; MBC (E. coli 25922 [5]): 4 µM; MIC (E. coli 25922 [5]): 2 µM; MBC [6]: 4 µM; MIC [6]: 2 µM
